Assay results: patent US20070155795A1, “MUSCARINIC AGONISTS” (ACADIA Pharmaceuticals Inc., priority 2000, published 2007)

Legend:
Type in all cases: cell-based
[1] = biological target: T1, m1 muscarinic receptor subtype (Homo sapiens, UniProt P11229); assay: R-SAT assay, muscarinic receptor subtype m1; details: transfected NIH-3T3 cells, 5 days; for m1 % Eff: relative to maximum response to carbachol; for EC50: read-out: m1 pEC50 (converted)
T1 construct: expressed in transfected cells; host or cells: NIH-3T3 (ATCC CRL 1658)
T1 sequence (P11229 1-460): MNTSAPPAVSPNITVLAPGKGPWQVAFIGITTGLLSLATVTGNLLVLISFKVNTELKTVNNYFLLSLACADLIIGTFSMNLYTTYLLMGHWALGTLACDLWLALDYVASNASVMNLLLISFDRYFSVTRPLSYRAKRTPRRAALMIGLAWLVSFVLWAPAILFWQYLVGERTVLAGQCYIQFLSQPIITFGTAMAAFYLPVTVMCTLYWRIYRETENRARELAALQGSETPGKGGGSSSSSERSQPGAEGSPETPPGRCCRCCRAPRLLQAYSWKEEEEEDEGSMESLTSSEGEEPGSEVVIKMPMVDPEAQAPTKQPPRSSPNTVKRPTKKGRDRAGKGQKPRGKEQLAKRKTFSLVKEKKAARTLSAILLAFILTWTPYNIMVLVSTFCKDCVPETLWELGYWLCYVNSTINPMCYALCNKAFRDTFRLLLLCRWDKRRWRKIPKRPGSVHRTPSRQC
Experimental: (§1) Transfected cells were grown in the presence of between 1 nM and 40 μM of the test compound for 5 days. On day 5, the cells were lysed using 0.5% Nonidet-P and β-galactosidase expression was quantified using the chromogenic substrate o-nitrophenyl-β-D-galactoside (ONGP).
(§2) Data were normalized relative to the maximum response of the cells to the muscarinic agonist carbachol, and the following equation was fitted to the data: • response=minimum+(maximum−minimum)/(1+(EC50/[ligand])) • Where [ligand]=ligand concentration. • % Efficacy was defined as: • (maximum−minimum)/(maximum response of cells to carbachol). • pEC50=−log (EC50). • Where data gave a bell-shaped curve, “maximum” was defined as the highest observed response.

[2] = biological target: T2, m4 muscarinic receptor subtype (Homo sapiens, UniProt P08173); assay: R-SAT assay, muscarinic receptor subtype m4; details: transfected NIH-3T3 cells, 5 days; for m4 % Eff: relative to maximum response to carbachol; for EC50: read-out: m4 pEC50 (converted)
T2 construct: expressed in transfected cells; host or cells: NIH-3T3 (ATCC CRL 1658)
T2 sequence (P08173 1-479): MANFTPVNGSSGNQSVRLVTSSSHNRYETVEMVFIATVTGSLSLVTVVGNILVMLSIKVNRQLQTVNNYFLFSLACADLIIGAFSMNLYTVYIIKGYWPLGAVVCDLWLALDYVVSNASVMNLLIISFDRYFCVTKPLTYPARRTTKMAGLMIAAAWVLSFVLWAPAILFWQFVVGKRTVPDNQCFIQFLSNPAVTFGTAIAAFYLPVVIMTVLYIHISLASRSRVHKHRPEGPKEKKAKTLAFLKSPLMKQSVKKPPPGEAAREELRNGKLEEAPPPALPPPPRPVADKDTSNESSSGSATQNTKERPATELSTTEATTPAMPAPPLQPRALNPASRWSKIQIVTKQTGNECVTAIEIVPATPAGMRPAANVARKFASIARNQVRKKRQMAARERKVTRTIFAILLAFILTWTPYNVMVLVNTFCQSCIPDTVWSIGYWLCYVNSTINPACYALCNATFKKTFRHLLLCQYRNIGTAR
Experimental: as §1, §2

[3] = biological target: T3, m2 muscarinic receptor subtype (Homo sapiens, UniProt P08172); assay: R-SAT assay, muscarinic receptor subtype m2; details: transfected NIH-3T3 cells, 5 days, relative to maximum response to carbachol
T3 construct: expressed in transfected cells; host or cells: NIH-3T3 (ATCC CRL 1658)
T3 sequence (P08172 1-466): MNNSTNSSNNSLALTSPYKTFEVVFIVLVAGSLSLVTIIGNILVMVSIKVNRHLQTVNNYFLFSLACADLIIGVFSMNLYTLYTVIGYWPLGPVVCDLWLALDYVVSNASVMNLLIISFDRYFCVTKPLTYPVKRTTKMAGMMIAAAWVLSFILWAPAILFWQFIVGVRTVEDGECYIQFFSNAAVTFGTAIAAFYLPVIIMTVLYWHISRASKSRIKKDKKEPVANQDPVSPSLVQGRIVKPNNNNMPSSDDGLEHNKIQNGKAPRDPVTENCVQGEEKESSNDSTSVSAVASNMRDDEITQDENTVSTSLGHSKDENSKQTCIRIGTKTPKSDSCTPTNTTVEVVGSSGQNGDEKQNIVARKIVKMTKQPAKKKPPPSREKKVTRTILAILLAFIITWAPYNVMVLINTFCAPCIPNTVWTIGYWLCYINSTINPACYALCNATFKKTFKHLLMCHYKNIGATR
Experimental: (§3) Screening Of Test Compounds In An Assay Using Muscarinic Receptor Subtypes m1, m2, m3, m4 and m5. The m1, m2, m3, m4 and m5 muscarinic receptor subtypes were cloned substantially as described by Bonner et al., Science […] and Bonner et al., Neuron 1:403 (1988). R-SAT assays were carried out substantially as described in U.S. Pat. Nos. 5,707,798, 5,912,132, and 5,955,281, and by Braüner-Osborne & Brann, Eur. J. Pharmacol. 295:93 (1995). NIH-3T3 cells (available from the American Type Culture Collection as ATCC CRL 1658) were transfected with plasmid DNA encoding the m1, m2, m3, m4 or m5 receptors and plasmid DNA encoding β-galactosidase. Transfected cells were grown in the presence of between 1 nM and 40 μM of the test compound for 5 days. On day 5, the cells were lysed using 0.5% Nonidet-P and β-galactosidase expression was quantified using the chromogenic substrate o-nitrophenyl-β-D-galactoside (ONGP).
as §2

[4] = biological target: T4, m3 muscarinic receptor subtype (Homo sapiens, UniProt P20309); assay: R-SAT assay, muscarinic receptor subtype m3; details: transfected NIH-3T3 cells, 5 days, relative to maximum response to carbachol
T4 construct: expressed in transfected cells; host or cells: NIH-3T3 (ATCC CRL 1658)
Experimental: as §3, §2

[5] = biological target: T5, m5 muscarinic receptor subtype (Homo sapiens, UniProt P08912); assay: R-SAT assay, muscarinic receptor subtype m5; details: transfected NIH-3T3 cells, 5 days, relative to maximum response to carbachol
T5 construct: expressed in transfected cells; host or cells: NIH-3T3 (ATCC CRL 1658)
T5 sequence (P08912 1-532): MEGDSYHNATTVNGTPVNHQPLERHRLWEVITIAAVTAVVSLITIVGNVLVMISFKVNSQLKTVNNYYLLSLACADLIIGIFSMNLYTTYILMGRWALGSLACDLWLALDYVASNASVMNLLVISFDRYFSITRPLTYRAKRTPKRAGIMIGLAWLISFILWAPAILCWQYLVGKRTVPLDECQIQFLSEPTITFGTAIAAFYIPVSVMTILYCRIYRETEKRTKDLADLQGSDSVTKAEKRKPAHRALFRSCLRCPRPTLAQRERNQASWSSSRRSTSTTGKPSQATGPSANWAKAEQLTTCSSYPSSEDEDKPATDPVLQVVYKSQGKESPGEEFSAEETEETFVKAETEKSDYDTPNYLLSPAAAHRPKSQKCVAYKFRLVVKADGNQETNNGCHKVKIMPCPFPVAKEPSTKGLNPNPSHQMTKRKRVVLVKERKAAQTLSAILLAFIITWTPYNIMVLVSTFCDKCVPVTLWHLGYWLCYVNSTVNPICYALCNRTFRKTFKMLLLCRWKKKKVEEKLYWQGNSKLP
Experimental: as §3, §2

T4 sequence (P20309 whole entry): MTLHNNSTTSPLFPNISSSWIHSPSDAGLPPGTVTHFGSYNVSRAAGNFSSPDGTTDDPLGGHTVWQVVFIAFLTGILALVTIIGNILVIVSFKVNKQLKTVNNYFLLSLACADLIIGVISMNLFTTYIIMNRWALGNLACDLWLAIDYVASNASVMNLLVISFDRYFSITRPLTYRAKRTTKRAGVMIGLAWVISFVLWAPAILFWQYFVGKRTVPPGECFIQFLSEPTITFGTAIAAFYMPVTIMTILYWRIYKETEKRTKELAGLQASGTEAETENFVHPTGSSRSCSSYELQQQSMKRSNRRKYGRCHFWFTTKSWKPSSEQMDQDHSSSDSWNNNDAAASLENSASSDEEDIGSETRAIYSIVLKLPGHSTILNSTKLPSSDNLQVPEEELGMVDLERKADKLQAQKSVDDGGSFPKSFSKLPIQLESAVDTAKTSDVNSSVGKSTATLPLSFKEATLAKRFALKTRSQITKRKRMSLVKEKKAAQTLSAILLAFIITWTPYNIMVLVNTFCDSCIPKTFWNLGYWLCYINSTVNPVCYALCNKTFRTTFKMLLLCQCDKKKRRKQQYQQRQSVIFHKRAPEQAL

Row | Compound | m1 pEC50 [1] | m1 % Eff [1] | m4 pEC50 [2] | m4 % Eff [2] | m2 % Eff [3] | m3 % Eff [4] | m5 % Eff [5] | EC50 [1] | EC50 [2]
1 | 1-[3-(4-Butyl-piperidin-1-yl)-propyl]-5,6-dimethyl-1H-benzoimidazole [Example 81] | 6.4 | 72% | <5.5 | 77% | – | – | – | – | –
2 | 2-[3-(4-Butylpiperidin-1-yl)-propyl]-1-methyl-1H-benzimidazole [Example 73] | 6.2 | 37% | – | no response (No response: Efficacy <25% maximum response of carbachol. This level of activity is not considered significantly different to no response.) | – | – | – | – | –
3 | 3-[3-(4-Butyl-piperidin-1-yl)-propyl]-benzo[d]isothiazole [Example 93] | 7.1 | 83% | 6.4 | 58% | no response (No response: Efficacy <25% maximum response of carbachol. This level of activity is not considered significantly different to no response.) | no response (No response: Efficacy <25% maximum response of carbachol. This level of activity is not considered significantly different to no response.) | no response (No response: Efficacy <25% maximum response of carbachol. This level of activity is not considered significantly different to no response.) | – | –
4 | CCCCC1CCN(CCCn2ccc3ccccc32)CC1 [Example 12, 1-(3-(4-n-Butylpiperidine)-1-yl-propyl)-1H-indole] | 5.9 | 59% | – | – | no response (No response: Efficacy <25% maximum response of carbachol. This level of activity is not considered significantly different to no response.) | no response (No response: Efficacy <25% maximum response of carbachol. This level of activity is not considered significantly different to no response.) | no response (No response: Efficacy <25% maximum response of carbachol. This level of activity is not considered significantly different to no response.) | – | –
5 | CCCCC1CCN(CCCc2noc3ccccc23)CC1 [Example 24, 3-(3-(4-n-Butylpiperidine)-1-yl-propyl)-benzo[d]isoxazole] | – | 75% | – | 41% | no response (No response: Efficacy <25% maximum response of carbachol. This level of activity is not considered significantly different to no response.) | no response (No response: Efficacy <25% maximum response of carbachol. This level of activity is not considered significantly different to no response.) | no response (No response: Efficacy <25% maximum response of carbachol. This level of activity is not considered significantly different to no response.) | 126 nM | 501 nM
6 | CCCCC1CCN(CCCc2nc3c([N+](=O)[O-])cccc3[nH]2)CC1 [Example 28, 4-Nitro-2-(3-(4-n-butylpiperidine)-1-yl-propyl)-1H-benzoimidazole] | 6.5 | 38% | – | no response (No response: Efficacy <25% maximum response of carbachol. This level of activity is not considered significantly different to no response.) | – | no response (No response: Efficacy <25% maximum response of carbachol. This level of activity is not considered significantly different to no response.) | no response (No response: Efficacy <25% maximum response of carbachol. This level of activity is not considered significantly different to no response.) | – | –
7 | CC(C)CCC1CCN(CCCn2ncc3ccccc32)CC1 [Example 42, 1-(3-(4-(3-Methyl-butyl)-piperidine)-1-yl-propyl)-1H-indazole] | 7.1 | 51% | – | – | – | – | – | – | –
8 | CCCCC=C1CCN(CCCn2ncc3ccccc32)CC1 [Example 43, 1-(3-(4-Pentylidene-piperidine)-1-yl-propyl)-1H-indazole] | – | 66% | – | 30% | – | – | no response (No response: Efficacy <25% maximum response of carbachol. This level of activity is not considered significantly different to no response.) | 501 nM | 1000 nM
9 | CCC=C1CCN(CCCn2ncc3ccccc32)CC1 [Example 44, 1-(3-(4-Propylidene-piperidine)-1-yl-propyl)-1H-indazole] | 6.1 | 72% | – | – | – | – | – | – | –
10 | CCCCC1CCN(CCCn2nc(Cl)c3ccccc32)CC1 [Example 65, 1-[3-(4-Butylpiperidin-1-yl)-propyl]-3-chloro-1H-indazole] | 6.0 | 45% | <5.5 | 34% | no response (No response: Efficacy <25% maximum response of carbachol. This level of activity is not considered significantly different to no response.) | – | – | – | –
11 | CCCCC1CCN(CCCn2c(C)cc3ccccc32)CC1 [Example 77, 1-[3-(4-Butyl-piperidin-1-yl)-propyl]-2-methyl-1H-indole] | 7.0 | 71% | 6.3 | 96% | – | – | – | – | –
